Test results published in US20250288589A1, “PYRIDOPYRIMIDINES AND METHODS OF THEIR USE” (Kineta, Inc., priority 2021, published 2025).

The compounds below were run against T1, full-length human PIKFYVE (Homo sapiens, UniProt Q9Y2I7, L932S/Q1183K/Q995L/S1033A/S696N/T998S) (assay: PIKfyve biochemical assay (ADP-Glo Kinase assay, Carna Biosciences)). Conditions: GST-PIKFYVE, 10 μM to 3 nM in duplicate, read-out: hPIKfyve IC50.
T1 construct: A full-length human PIKFYVE [1-2098(end) amino acids and S696N, L932S, Q995L, T998S, S1033A and Q1183K; purchased Carna Biosciences; host or cells: baculovirus expression system
T1 sequence (Q9Y2I7 whole entry S696N/L932S/Q995L/T998S/S1033A/Q1183K): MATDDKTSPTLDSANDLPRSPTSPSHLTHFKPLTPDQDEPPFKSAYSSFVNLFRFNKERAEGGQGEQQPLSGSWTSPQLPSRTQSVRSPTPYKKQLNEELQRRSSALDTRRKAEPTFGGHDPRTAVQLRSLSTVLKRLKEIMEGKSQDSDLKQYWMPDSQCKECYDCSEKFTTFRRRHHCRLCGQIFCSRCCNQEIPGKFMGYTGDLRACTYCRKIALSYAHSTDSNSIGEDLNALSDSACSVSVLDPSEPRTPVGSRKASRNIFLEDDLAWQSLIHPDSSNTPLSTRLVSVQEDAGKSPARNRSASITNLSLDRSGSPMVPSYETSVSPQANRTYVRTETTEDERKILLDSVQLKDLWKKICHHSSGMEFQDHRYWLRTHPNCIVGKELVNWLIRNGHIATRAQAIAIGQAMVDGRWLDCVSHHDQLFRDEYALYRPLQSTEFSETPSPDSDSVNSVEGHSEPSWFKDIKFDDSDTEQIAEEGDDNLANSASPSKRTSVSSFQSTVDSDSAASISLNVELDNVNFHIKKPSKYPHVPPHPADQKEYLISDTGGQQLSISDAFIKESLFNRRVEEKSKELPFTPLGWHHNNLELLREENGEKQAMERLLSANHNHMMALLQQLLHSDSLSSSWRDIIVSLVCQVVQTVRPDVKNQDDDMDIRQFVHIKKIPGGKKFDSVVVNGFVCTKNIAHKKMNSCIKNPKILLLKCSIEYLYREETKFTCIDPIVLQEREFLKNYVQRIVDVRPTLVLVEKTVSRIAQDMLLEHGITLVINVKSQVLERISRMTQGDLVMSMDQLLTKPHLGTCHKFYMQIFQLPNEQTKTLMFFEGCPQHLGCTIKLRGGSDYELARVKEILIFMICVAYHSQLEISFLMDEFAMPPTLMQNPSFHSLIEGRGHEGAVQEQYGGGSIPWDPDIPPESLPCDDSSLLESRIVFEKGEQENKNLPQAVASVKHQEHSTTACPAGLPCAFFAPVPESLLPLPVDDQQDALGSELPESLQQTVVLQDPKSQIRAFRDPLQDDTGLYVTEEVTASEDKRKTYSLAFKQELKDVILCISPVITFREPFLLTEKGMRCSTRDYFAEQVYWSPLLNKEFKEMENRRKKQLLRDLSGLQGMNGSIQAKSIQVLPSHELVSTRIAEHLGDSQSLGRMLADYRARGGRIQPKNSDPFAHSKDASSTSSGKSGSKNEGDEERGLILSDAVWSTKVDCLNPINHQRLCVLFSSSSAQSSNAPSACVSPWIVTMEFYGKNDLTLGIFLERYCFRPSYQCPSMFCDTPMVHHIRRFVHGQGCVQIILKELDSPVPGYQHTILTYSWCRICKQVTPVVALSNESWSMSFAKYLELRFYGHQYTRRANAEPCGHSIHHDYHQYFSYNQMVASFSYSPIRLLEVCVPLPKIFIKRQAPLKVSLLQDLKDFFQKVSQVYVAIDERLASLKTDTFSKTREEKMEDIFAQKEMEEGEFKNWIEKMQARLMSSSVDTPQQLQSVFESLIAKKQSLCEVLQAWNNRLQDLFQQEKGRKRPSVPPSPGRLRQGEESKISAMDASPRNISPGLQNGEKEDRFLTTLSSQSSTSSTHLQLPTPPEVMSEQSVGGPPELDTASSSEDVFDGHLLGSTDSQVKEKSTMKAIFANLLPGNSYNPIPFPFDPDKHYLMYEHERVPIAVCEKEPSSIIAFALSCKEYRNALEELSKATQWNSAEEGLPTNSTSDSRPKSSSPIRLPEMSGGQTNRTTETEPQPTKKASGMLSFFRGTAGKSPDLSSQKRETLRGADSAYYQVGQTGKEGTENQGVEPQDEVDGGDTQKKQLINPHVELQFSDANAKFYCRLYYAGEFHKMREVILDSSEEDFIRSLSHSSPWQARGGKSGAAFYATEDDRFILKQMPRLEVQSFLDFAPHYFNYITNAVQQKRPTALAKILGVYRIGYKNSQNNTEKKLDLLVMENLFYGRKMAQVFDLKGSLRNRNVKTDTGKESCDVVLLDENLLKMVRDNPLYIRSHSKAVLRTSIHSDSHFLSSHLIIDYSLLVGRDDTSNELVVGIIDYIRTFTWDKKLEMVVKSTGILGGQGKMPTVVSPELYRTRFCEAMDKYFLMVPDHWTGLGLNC
From the text: (§1) PIKfyve Biochemical Assay. The biochemical PIKFyve inhibition assays were run by Carna Biosciences according to proprietary methodology based on the Promega ADP-Glo™ Kinase assay. A full-length human PIKFYVE [1-2098(end) amino acids and S696N, L932S, Q995L, T998S, S1033A and Q1183K of the protein having the sequence set forth in NCBI Reference Sequence No. NP_055855.2] was expressed as N-terminal GST-fusion protein (265 kDa) using baculovirus expression system. GST-PIKFYVE was purified by using glutathione sepharose chromatography and used in an ADP-Glo™ Kinase assay (Promega). Reactions were set up by adding the test compound solution, substrate solution, ATP solution and kinase solution, each at 4× final concentrations. Reactions were prepared with assay buffer (50 mM MOPS, 1 mM DTT, pH7.2), mixed, and incubated in black 384 well polystyrene plates for 1 hour at room temperature. ADP-Glo™ reagent was then added for 40 minutes, followed by kinase detection reagent for an additional 40 minutes. The kinase activity was evaluated by detecting relative light units on a luminescence plate reader. Samples were run in duplicate from 10 μM to 3 nM. […] IC50 values were calculated from concentration vs % inhibition curves by fitting to a four-parameter logistic curve.
as §1, with “The” for “PIKfyve Biochemical Assay. The”, “accession number” for “the protein having the sequence set forth in NCBI Reference Sequence No.”, “uM” for “μM”
For `COc1ccc(-c2ccn(-c3nc(N4CCOCC4)c4ncc(C5=CCOCC5)cc4n3)n2)cc1` [Compound 29, 4-(7-(3,6-dihydro-2H-pyran-4-yl)-2-(3-(4-methoxyphenyl)-1H-pyrazol-1-yl)pyrido[3,2-d]pyrimidin-4-yl)morpholine], the IC50 was 100 to 1000 nM. In the case of `COc1ccc(-c2ccn(-c3nc(N4CCOCC4)c4ncc(C5CCOCC5)cc4n3)n2)cc1` [Compound 30, 4-(2-(3-(4-methoxyphenyl)-1H-pyrazol-1-yl)-7-(tetrahydro-2H-pyran-4-yl)pyrido[3,2-d]pyrimidin-4-yl)morpholine], the IC50 is reported as 100 to 1000 nM. Compound `c1ccc(-c2ccn(-c3nc(N4CCOCC4)c4ncc(C5CC5)cc4n3)n2)cc1` [Compound 55, 4-[7-cyclopropyl-2-(3-phenylpyrazol-1-yl)pyrido[3,2-d]pyrimidin-4-yl]morpholine] has an IC50 of 10 to 100 nM. For `c1ccc(-c2cnn(-c3nc(N4CCOCC4)c4ncc(C5CCOCC5)cc4n3)c2)cc1` [Compound 10, 4-[2-(4-phenylpyrazol-1-yl)-7-tetrahydropyran-4-yl-pyrido[3,2-d]pyrimidin-4-yl]morpholine], the IC50 was less than 10 nM. In the case of `c1ccc(-c2nccc(-c3nc(N4CCOCC4)c4ncc(-c5cc[nH]n5)cc4n3)n2)cc1` [Compound 105, 4-(2-(2-phenylpyrimidin-4-yl)-7-(1H-pyrazol-3-yl)pyrido[3,2-d]pyrimidin-4-yl)morpholine], the IC50 is reported as 10 to 100 nM. With `c1ccc(-c2nccc(-c3nc(N4CCOCC4)c4ncc(-c5ccncc5)cc4n3)n2)cc1` [Compound 104, 4-(2-(2-phenylpyrimidin-4-yl)-7-(pyridin-4-yl)pyrido[3,2-d]pyrimidin-4-yl)morpholine] the IC50 was less than 10 nM. `c1cncc(-c2ccn(-c3nc(N4CCOCC4)c4ncc(-c5ccc6c(c5)OCCO6)cc4n3)n2)c1` [Compound 49, 4-(7-(2,3-dihydrobenzo[b][1,4]dioxin-6-yl)-2-(3-(pyridin-3-yl)-1H-pyrazol-1-yl)pyrido[3,2-d]pyrimidin-4-yl)morpholine] gave an IC50 of 1000 to 10000 nM. For `c1cnc2c(N3CCOCC3)nc(-n3ccc(CC4CCNC4)n3)nc2c1` (stereo not drawn) [Compound 64, 4-[2-[3-(pyrrolidin-3-ylmethyl)pyrazol-1-yl]pyrido[3,2-d]pyrimidin-4-yl]morpholine], the IC50 was 1000 to 10000 nM. With `Cc1cc(-c2ccccc2)nn1-c1nc(N2CCOCC2)c2ncccc2n1` [Compound 39, 4-(2-(5-methyl-3-phenyl-1H-pyrazol-1-yl)pyrido[3,2-d]pyrimidin-4-yl)morpholine] the IC50 was greater than 10000 nM. `COc1cnc(-c2ccccc2)nc1-c1nc(N2CCOCC2)c2ncccc2n1` [Compound 93, 4-(2-(5-methoxy-2-phenylpyrimidin-4-yl)pyrido[3,2-d]pyrimidin-4-yl)morpholine] showed an IC50 of 100 to 1000 nM. `Cc1cccc(-c2cc(O)n(-c3nc(N4CCOCC4)c4ncc(-c5ccoc5)cc4n3)n2)c1` [Compound 70, 1-(7-(furan-3-yl)-4-morpholinopyrido[3,2-d]pyrimidin-2-yl)-3-m-tolyl-1H-pyrazol-5-ol] gave an IC50 of less than 10 nM. In the case of `c1cnc2c(N3CCOCC3)nc(-n3ccc(-c4ccncc4)n3)nc2c1` [Compound 14, 4-(2-(3-(pyridin-4-yl)-1H-pyrazol-1-yl)pyrido[3,2-d]pyrimidin-4-yl)morpholine], the IC50 is reported as 1000 to 10000 nM. For `CC1COCCN1c1nc(-c2ccnc(-c3ccccc3)n2)nc2cccnc12` (stereo not drawn) [Compound 106, 3-methyl-4-(2-(2-phenylpyrimidin-4-yl)pyrido[3,2-d]pyrimidin-4-yl)morpholine], the IC50 was 100 to 1000 nM. `Cc1cccc(/C=N/Oc2nc(N3CCOCC3)c3ncccc3n2)c1` [Compound 116, (E)-3-methylbenzaldehyde O-(4-morpholinopyrido[3,2-d]pyrimidin-2-yl) oxime] showed an IC50 of 10 to 100 nM. `COc1cccc(-c2cnn(-c3nc(N4CCOCC4)c4ncc(CO)cc4n3)c2)c1` [Compound 45, (2-(4-(3-methoxyphenyl)-1H-pyrazol-1-yl)-4-morpholinopyrido[3,2-d]pyrimidin-7-yl)methanol] gave an IC50 of less than 10 nM. `COc1cnc(-c2cccc(C)c2)nc1-c1nc(N2CCOCC2)c2ncccc2n1` [Compound 102, 4-(2-(5-methoxy-2-m-tolylpyrimidin-4-yl)pyrido[3,2-d]pyrimidin-4-yl)morpholine] gave an IC50 of 100 to 1000 nM. Work on `c1ccc(-c2cn(-c3nc(N4CCOCC4)c4ncccc4n3)nn2)cc1` [Compound 74, 4-(2-(4-phenyl-1H-1,2,3-triazol-1-yl)pyrido[3,2-d]pyrimidin-4-yl)morpholine] yielded an IC50 of 100 to 1000 nM. Compound `COc1cccc(-c2ccn(-c3nc(N4CCOCC4)c4ncccc4n3)n2)c1` [Compound 27, 4-(2-(3-(3-methoxyphenyl)-1H-pyrazol-1-yl)pyrido[3,2-d]pyrimidin-4-yl)morpholine] has an IC50 of 10 to 100 nM. For `c1cncc(-c2ccn(-c3nc(N4CCOCC4)c4ncc(C5CCOCC5)cc4n3)n2)c1` [Compound 52, 4-[2-[3-(3-pyridyl)pyrazol-1-yl]-7-tetrahydropyran-4-yl-pyrido[3,2-d]pyrimidin-4-yl]morpholine], the IC50 was 1000 to 10000 nM. With `COc1cccc(-c2nccc(-c3nc(N4CCOCC4)c4ncccc4n3)n2)c1` [Compound 100, 4-(2-(2-(3-methoxyphenyl)pyrimidin-4-yl)pyrido[3,2-d]pyrimidin-4-yl)morpholine] the IC50 was 100 to 1000 nM. For `c1cnc2c(N3CCOCC3)nc(-c3ccnc(C4CCNCC4)n3)nc2c1` [Compound 84, 4-[2-[2-(4-piperidyl)pyrimidin-4-yl]pyrido[3,2-d]pyrimidin-4-yl]morpholine], the IC50 was greater than 10000 nM. `CN1CCN(c2cnc3c(N4CCOCC4)nc(-n4cc(-c5ccccc5)cn4)nc3c2)C(=O)C1` [Compound 56, 4-methyl-1-(4-morpholino-2-(4-phenyl-1H-pyrazol-1-yl)pyrido[3,2-d]pyrimidin-7-yl)piperazin-2-one] gave an IC50 of 10 to 100 nM. For `COc1ccc(-c2ccccc2)nc1-c1nc(N2CCOCC2)c2ncccc2n1` [Compound 107, 4-(2-(3-methoxy-6-phenylpyridin-2-yl)pyrido[3,2-d]pyrimidin-4-yl)morpholine], the IC50 was 1000 to 10000 nM. Compound `Cc1ccc2c(c1)nnn2-c1nc(N2CCOCC2)c2ncccc2n1` [Compound 76, 4-(2-(5-methyl-1H-benzo[d][1,2,3]triazol-1-yl)pyrido[3,2-d]pyrimidin-4-yl)morpholine] has an IC50 of 100 to 1000 nM. `COc1cccc(-c2cnn(-c3nc(N4CCOCC4)c4ncccc4n3)c2)c1` [Compound 28, 4-(2-(4-(3-methoxyphenyl)-1H-pyrazol-1-yl)pyrido[3,2-d]pyrimidin-4-yl)morpholine] gave an IC50 of less than 10 nM. Compound `c1ccc(-c2cnn(-c3nc(N4CCOCC4)c4ncc(N5CCOCC5)cc4n3)c2)cc1` [Compound 40, 4,4′-(2-(4-phenyl-1H-pyrazol-1-yl)pyrido[3,2-d]pyrimidine-4,7-diyl)dimorpholine] has an IC50 of less than 10 nM. For `COC(=O)c1cnc2c(N3CCOCC3)nc(-n3cc(-c4cccc(OC)c4)cn3)nc2c1` [Compound 43, methyl 2-(4-(3-methoxyphenyl)-1H-pyrazol-1-yl)-4-morpholinopyrido[3,2-d]pyrimidine-7-carboxylate], the IC50 was less than 10 nM.
